Laboratory results from article PMC12693764, “Antidepressant-like Effects of Garcinia nigrolineata Resin Extract in a Chronic Mild Stress Mouse Model: Modulation of Monoaminergic and HPA-Axis Pathways” (Plants, 2025).
Counter-ions that a name gives are not always drawn.

Assays:
MAO-A = details: cited from earlier work; for selective MAO-A inhibition: GNR-E constituents, ref Previous studies
MAO-B = details: cited from earlier work; for MAO-B inhibition (targeting): GNR-E constituents, ref Previous studies
[1] = test system: SERT, 5-HT1A, 5-HT1B, 5-HT2A, 5-HT2C, and 5-HT7; assay: qPCR of serotonergic biomarker genes in frontal cortex and hippocampus of CMS mice; format: in vivo, male ICR mice
From the text: The CMS procedure, adapted from Willner [4], was applied to experimental mice over 48 days. Seventy-two mice were randomly assigned to six groups: a non-stress control group and four CMS-exposed groups for 6 weeks.
The frontal cortex (FC) and hippocampus (HP) were dissected from the brain for serotonin (5-HT), norepinephrine (NE) level assessments, and RT-qPCR analyses.
Total RNA was extracted from frontal cortex (FC) and hippocampus (HP) using TRLzol® reagent (Thermo Fisher Scientific Inc., San Jose, CA, USA), with purity and quantity assessed via UV spectrophotometry. Complementary DNA (cDNA) was synthesized using 10 mM dNTP, 50 µM oligo (dT)12-13 primer, and SuperScript® III reverse transcriptase (200 U/µL) in a FlexCycler2 PCR Thermal Cycler (Analytik Jena, Thuringia, Germany). Single-stranded DNA was annealed to gene-specific primers (Pacific Science, Bangkok, Thailand) at optimized temperatures, followed by extension. Double-stranded DNA was quantified using SYBR Green master mix (Thermo Fisher Scientific Inc., San Jose, CA, USA) in a 20 µL reaction containing 2X SYBR Green PCR Master Mix, 10 nM of each primer, and 5 µL cDNA. […] Melting curve analysis was conducted post-amplification. Glyceraldehyde 3-phosphate dehydrogenase (GAPDH) mRNA served as the housekeeping gene, and fold differences were calculated using the 2^−∆∆CT method, incorporating standard deviation into the fold-difference calculation [30].

[2] = test system: depressive-like behaviors; assay: Chronic mild stress (CMS) mouse model of depression, behaviours overall; format: in vivo, male ICR mice; details: CMS mice, oral GNR-E 50, 150, 450 mg/kg/day, imipramine 20 mg/kg/day
Protocol: The CMS procedure, adapted from Willner, was applied to experimental mice over 48 days. Seventy-two mice were randomly assigned to six groups: a non-stress control group and four CMS-exposed groups for 6 weeks. Stressors included a tilted cage at 45° (12 h), restricted food access (five micro pellets, 1 h), empty bottle exposure (3 h), wet cage (200 mL water in 100 g sawdust bedding, 21 h), reversed light–dark cycle (36 h), intermittent sound (3 and 5 h), paired caging (2 h), and food/water deprivation (18 h), applied randomly weekly and repeated over 6 weeks (Figure 11). The non-stressed group was maintained under standard conditions. Mice were randomly divided into six groups […]. The non-stress group received 0.5% sodium carboxymethylcellulose (SCMC; 1 mL/kg, p.o.), while the CMS group received 0.5% SCMC (1 mL/kg, p.o.). […] All treatments were given daily for 3 weeks, starting on day 21, at 8:00 a.m., one hour before behavioral testing.

norepinephrine (NE) = assay: Norepinephrine (NE) levels in frontal cortex and hippocampus of CMS mice; format: in vivo, male ICR mice; details: daily imipramine 20 mg/kg or GNR-E 450 mg/kg, vs vehicle-treated CMS group
Protocol: (§1) The CMS procedure, adapted from Willner, was applied to experimental mice over 48 days. Seventy-two mice were randomly assigned to six groups: a non-stress control group and four CMS-exposed groups for 6 weeks. Stressors included a tilted cage at 45° (12 h), restricted food access (five micro pellets, 1 h), empty bottle exposure (3 h), wet cage (200 mL water in 100 g sawdust bedding, 21 h), reversed light–dark cycle (36 h), intermittent sound (3 and 5 h), paired caging (2 h), and food/water deprivation (18 h), applied randomly weekly and repeated over 6 weeks (Figure 11). The non-stressed group was maintained under standard conditions.
(§2) Mice were randomly divided into six groups (n = 15). The non-stress group received 0.5% sodium carboxymethylcellulose (SCMC; 1 mL/kg, p.o.), while the CMS group received 0.5% SCMC (1 mL/kg, p.o.). […]
Brain supernatant (0.2 mL) was combined with 0.1 mL sodium acetate buffer (pH 6.9), 0.05 mL HCl (0.4 M), and 0.1 mL iodine solution (0.1 M in ethanol) for oxidation. […] Excitation and emission spectra were recorded at 395 nm and 485 nm, respectively, using a calibrated spectrofluorometer. Norepinephrine concentrations were calculated from a standard curve (0, 50, 100, 140, 220, 280, 300 µg/mL) prepared in distilled water and butanol/HCl (1:2 ratio).

serotonin (5-HT) = assay: Serotonin (5-HT) levels in frontal cortex and hippocampus of CMS mice; format: in vivo, male ICR mice; details: daily imipramine 20 mg/kg or GNR-E 450 mg/kg, vs vehicle-treated CMS group
Protocol: as §1, §2
Serotonin levels in mouse brain extracts were quantified using a modified fluorometric method.A 0.2 mL brain extract sample was mixed with 0.25 mL O-phthaldialdehyde (Sigma-Aldrich, St. Louis, MO, USA) and heated to 100 °C for 10 min to form a fluorophore. Levels were measured spectrofluorometrically at 340 nm (excitation) and 470 nm (emission) after cooling to room temperature. Concentrations were determined against a calibration curve (0, 25, 50, 100, 200, 300, 400 µg/mL) using the equation Y = AX + B, expressed as µg/mL.

[3] = test system: glucocorticoid receptor (GR) and serum/glucocorticoid-regulated kinase-1 (SGK-1); assay: qPCR of HPA-axis genes in frontal cortex and hippocampus of CMS mice; format: in vivo, male ICR mice; details: FC and HP, daily imipramine or GNR-E 50, 150, 450 mg/kg, vs vehicle-treated CMS group
Protocol: as §1
Mice were randomly divided into six groups (n = 15). […]
(§3) Total RNA was extracted from frontal cortex (FC) and hippocampus (HP) using TRLzol® reagent (Thermo Fisher Scientific Inc., San Jose, CA, USA), with purity and quantity assessed via UV spectrophotometry. […] Double-stranded DNA was quantified using SYBR Green master mix (Thermo Fisher Scientific Inc., San Jose, CA, USA) in a 20 µL reaction containing 2X SYBR Green PCR Master Mix, 10 nM of each primer, and 5 µL cDNA. […] Glyceraldehyde 3-phosphate dehydrogenase (GAPDH) mRNA served as the housekeeping gene, and fold differences were calculated using the 2^−∆∆CT method, incorporating standard deviation into the fold-difference calculation.

[4] = test system: serum corticosterone (CORT); assay: Serum corticosterone (CORT) ELISA in CMS mice; format: in vivo, male ICR mice; details: daily imipramine 20 mg/kg or GNR-E 50, 150 and 450 mg/kg, p < 0.001 vs vehicle-treated CMS group
Protocol: as §1
Mice were randomly divided into six groups […]. The non-stress group received 0.5% sodium carboxymethylcellulose (SCMC; 1 mL/kg, p.o.), while the CMS group received 0.5% SCMC (1 mL/kg, p.o.). The CMS + imipramine (IMP) group was administered imipramine hydrochloride (20 mg/kg, p.o.), and the CMS + GNR-E groups received GNR-E at 50, 150, and 450 mg/kg (p.o.), respectively. All treatments were given daily for 3 weeks, starting on day 21, at 8:00 a.m., one hour before behavioral testing. […]
Corticosterone levels were measured using an enzyme-linked immunosorbent assay (ELISA) kit (ab108821, Abcam Ltd., Cambridge, Cambridgeshire, UK) following the manufacturer’s instructions. […]

NET, α2A, and α2C = assay: qPCR of noradrenergic biomarker genes in frontal cortex and hippocampus of CMS mice; format: in vivo, male ICR mice
Protocol: as §1
Mice were randomly divided into six groups (n = 15). The non-stress group received 0.5% sodium carboxymethylcellulose (SCMC; 1 mL/kg, p.o.), while the CMS group received 0.5% SCMC (1 mL/kg, p.o.). The CMS + imipramine (IMP) group was administered imipramine hydrochloride (20 mg/kg, p.o.), and the CMS + GNR-E groups received GNR-E at 50, 150, and 450 mg/kg (p.o.), respectively. All treatments were given daily for 3 weeks, starting on day 21, at 8:00 a.m., one hour before behavioral testing.
Following behavioral tests, mice were anesthetized with […] (Nembutal®, Ceva Sante Animal, Libourne, France) at 60 mg/kg (i.p.) and decapitated. Blood and brain samples were collected immediately. Blood was centrifuged at 3000 rpm at 21 °C for 20 min to obtain serum for ELISA analysis. […]
as §3

[5] = test system: CMS-induced anhedonia behavior; assay: Sucrose preference (consumption) test in CMS mice; format: in vivo, male ICR mice; details: imipramine 20 mg/kg p.o. daily, by week 4
Protocol: Five-week-old male ICR mice (15–20 g) were obtained from Nomura Siam International (Bangkok, Thailand) and acclimatized for seven days prior to experimentation. The study protocol adhered to the Guiding Principle for the Care and Use of Animals (NIH Publications #8-23, revised 2011) and was approved by the Animal Ethics Committee of Khon Kaen University (approval No. IACUC-KKU-121/64), complying with ARRIVE guideline 2.0. […] Behavioral experiments were conducted between 07:00 and 17:00 h. The CMS procedure, adapted from Willner, was applied to experimental mice over 48 days. Seventy-two mice were randomly assigned to six groups: a non-stress control group and four CMS-exposed groups for 6 weeks. […] The amount consumed each day was recorded and used to group the mice and establish the baseline sucrose consumption before initiating the chronic stress procedure. During the subsequent experimental period (week 1–6), sucrose consumption was measured weekly using the same deprivation and testing conditions under chronic stress. The weight of each mouse and the amount of sucrose solution consumed were recorded and calculated as the amount of sucrose intake g/kg body weight).

immobility = test system: immobility; set-up: method as in Sahu et al.; details: α-mangostin from G. mangostana, by elevating 5-HT; ref Sahu et al.; cited from earlier work
[6] = test system: antidepressant-like properties; details: through monoaminergic modulation; cited from earlier work
[7] = FC and HP, imipramine, GNR-E 150–450 mg/kg
[8] = imipramine, GNR-E 150–450 mg/kg

## COc1c(O)cc2oc3cc(O)c(CC=C(C)C)c(O)c3c(=O)c2c1C/C=C(\C)CCC=C(C)C [cowanin]
MAO-A
  selective MAO-A inhibition: selectively inhibiting MAO-A
MAO-A; ref Our previous study
  MAO-A inhibition, rank among constituents: most potent toward MAO-A

## COc1cc2oc3cc(O)c(CC=C(C)C)c(O)c3c(=O)c2c(CC=C(C)C)c1OC [cowaxanthone B]
MAO-B
  MAO-B inhibition (targeting): targeting MAO-B

## CN(C)CCCN1c2ccccc2CCc2ccccc21 [imipramine, imipramine hydrochloride]
[1]; FC and HP, daily imipramine 20 mg/kg or GNR-E 50, 150, 450 mg/kg, vs vehicle-treated CMS group
  CMS-induced upregulation of serotonergic biomarker genes (SERT, 5-HT1A, 5-HT1B, 5-HT2A, 5-HT2C, 5-HT7): significantly reduced these elevations
[1]; FC and HP, imipramine, GNR-E 450 mg/kg
  CMS-increased 5-HT1A and 5-HT1B mRNA expression: reversed
[1]; [7]
  CMS-upregulated SERT mRNA expression: reversed
[1]; [8]
  CMS-elevated 5-HT2A, 5-HT2C, and 5-HT7 receptor expression: mitigated
[2]
  depressive-like behaviors: significantly improved depressive-like behaviors
Norepinephrine (NE)
  NE levels in frontal cortex and hippocampus: significantly restored 5-HT and NE levels
Serotonin (5-HT)
  5-HT levels in frontal cortex and hippocampus: significantly restored 5-HT and NE levels
[3]
  CMS-induced changes in SGK-1 (increased) and GR (decreased) mRNA levels: significantly reversed these changes
[4]
  serum CORT levels: significantly reduced these elevated CORT levels
NET, α2A, and α2C; FC and HP, daily imipramine or GNR-E, highest dose greatest effect
  CMS-increased expression of noradrenergic genes (NET, α2A, α2C): significantly attenuated
NET, α2A, and α2C; [7]
  CMS-upregulated NET mRNA expression: reversed
NET, α2A, and α2C; [8]
  CMS-upregulated α2A and α2C receptor expression: reversed
[5]
  sucrose intake (2% sucrose solution): significant increase in sucrose intake

## COc1c(O)cc2oc3cc(O)c(CC=C(C)C)c(O)c3c(=O)c2c1CC=C(C)C [α-mangostin]
immobility
  immobility: reducing immobility
[6]
  antidepressant-like properties: antidepressant-like properties
MAO-B
  MAO-B inhibition (targeting): targeting MAO-B
MAO-B; ref Our previous study
  MAO-B inhibition, relative strength: stronger MAO-B inhibition

## cowagarcinone A
MAO-A
  selective MAO-A inhibition: selectively inhibiting MAO-A

## cowaxanthone
MAO-A
  selective MAO-A inhibition: selectively inhibiting MAO-A

## xanthochymusxanthone A
MAO-A
  selective MAO-A inhibition: selectively inhibiting MAO-A
